{"source": "ChEMBL document CHEMBL5653627", "about": "(J Neurochem, 2017)", "assay_type_in_all_cases": "functional", "key": {"SMA-560 [1]": {"tested_on": "SMA-560", "assay": "Induction of apoptosis in mouse SMA-560 cells assessed as late apoptotic cells incubated for 72 hrs by Annexin V-FITC/PI staining based flow cytometric analysis (reference value: 1.83%)"}, "SMA-560 [2]": {"tested_on": "SMA-560", "assay": "Induction of apoptosis in mouse SMA-560 cells assessed as live cells incubated for 72 hrs by Annexin V-FITC/PI staining based flow cytometric analysis (reference value: 84.6%)"}, "SMA-560 [3]": {"tested_on": "SMA-560", "assay": "Induction of apoptosis in mouse SMA-560 cells assessed as early apoptotic cells incubated for 72 hrs by Annexin V-FITC/PI staining based flow cytometric analysis (reference value: 0.0056%)"}}}
{"smiles": "CN[C@@H]1C[C@H]2O[C@@](C)([C@@H]1OC)n1c3ccccc3c3c4c(c5c6ccccc6n2c5c31)C(=O)NC4", "note": "[STAUROSPORINE]", "values": [{"measurement": "Activity", "setting": "SMA-560 [1]", "value": 87.7, "unit": "%"}, {"measurement": "Activity", "setting": "SMA-560 [2]", "value": 1.29, "unit": "%"}, {"measurement": "Activity", "setting": "SMA-560 [3]", "value": 0, "unit": "%"}]}
